For one experiment, the target named is T1, 5-LO (Homo sapiens, UniProt P09917).
T1 construct: incubating a test compound with heparinised human blood, prior to challenge with the calcium ionophore A23187; endogenous in cells; host or cells: human whole blood (heparinised), blood cells
T1 sequence (P09917 1-674): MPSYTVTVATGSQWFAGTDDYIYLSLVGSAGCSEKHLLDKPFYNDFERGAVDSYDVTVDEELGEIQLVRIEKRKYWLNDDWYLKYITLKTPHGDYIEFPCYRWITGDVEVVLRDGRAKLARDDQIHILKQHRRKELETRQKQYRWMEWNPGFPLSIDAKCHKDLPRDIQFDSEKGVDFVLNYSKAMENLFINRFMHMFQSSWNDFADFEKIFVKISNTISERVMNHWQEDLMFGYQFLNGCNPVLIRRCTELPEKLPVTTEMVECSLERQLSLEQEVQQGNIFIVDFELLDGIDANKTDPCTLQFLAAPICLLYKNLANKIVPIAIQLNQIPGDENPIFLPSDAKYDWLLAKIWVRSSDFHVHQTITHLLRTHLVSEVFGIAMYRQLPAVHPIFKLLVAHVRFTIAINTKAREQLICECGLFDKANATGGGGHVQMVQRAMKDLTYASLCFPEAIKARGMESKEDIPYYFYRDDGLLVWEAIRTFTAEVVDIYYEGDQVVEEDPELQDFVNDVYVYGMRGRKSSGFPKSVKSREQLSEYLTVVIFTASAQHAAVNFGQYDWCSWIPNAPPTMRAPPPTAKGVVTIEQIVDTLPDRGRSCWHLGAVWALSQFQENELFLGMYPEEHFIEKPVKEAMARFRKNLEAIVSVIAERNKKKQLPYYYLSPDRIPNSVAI
Nature of the experiment: Test b): heparinised human blood challenged with A23187, radioimmunoassay of LTB₄. Format: cell-based. The note with it: heparinised human blood, calcium ionophore A23187 challenge; read-out: IC₅₀ against LTB₄ in test b). The protocol: (§1) As stated previously, the heterocyclic cyclic ethers of the formula I are inhibitors of the enzyme 5-LO. […] This test provides a measure of the intrinsic inhibitory properties against soluble 5-LO in an extracellular environment. • b) An in vitro assay system involving incubating a test compound with heparinised human blood, prior to challenge with the calcium ionophore A23187 and then indirectly measuring the inhibitory effects on 5-LO by assaying the amount of LTB₄ using the specific radioimmunoassay described by Carey and Forder (F. Carey and R.A. Forder, Brit. […] The effects of a test compound on the enzyme cyclooxygenase (which is involved in the alternative metabolic pathway for arachidonic acid and gives rise to prostaglandins, thromboxanes and related metabolites) may be measured at the same time using the specific radioimmunoassay for thromboxane B₂(TxB₂) described by Carey and Forder (see above). […] It permits the selectivity of the inhibitory effect on 5-LO or cyclooxygenase to be assessed. • c) An ex vivo assay system, which is a variation of test b) above, involving administration of a test compound (usually orally as the suspension produced when a solution of the test compound in dimethylsulphoxide is added to carboxymethylcellulose), blood collection, heparinisation, challenge with A23187 and radioimmunoassay of LTB₄ and TxB₂. […]

A further experiment addresses T2, cyclooxygenase (Homo sapiens, UniProt P23219).
T2 construct: may be measured at the same time using the specific radioimmunoassay for thromboxane B₂(TxB₂); endogenous in cells; host or cells: human whole blood (heparinised), blood cells
The experiment is described as follows: Test b): heparinised human blood challenged with A23187, radioimmunoassay of TxB₂. Format: cell-based. The note with it: heparinised human blood, calcium ionophore A23187 challenge; read-out: IC₅₀ against TxB₂ in test b). The protocol:
as §1

T2 sequence (P23219 24-599): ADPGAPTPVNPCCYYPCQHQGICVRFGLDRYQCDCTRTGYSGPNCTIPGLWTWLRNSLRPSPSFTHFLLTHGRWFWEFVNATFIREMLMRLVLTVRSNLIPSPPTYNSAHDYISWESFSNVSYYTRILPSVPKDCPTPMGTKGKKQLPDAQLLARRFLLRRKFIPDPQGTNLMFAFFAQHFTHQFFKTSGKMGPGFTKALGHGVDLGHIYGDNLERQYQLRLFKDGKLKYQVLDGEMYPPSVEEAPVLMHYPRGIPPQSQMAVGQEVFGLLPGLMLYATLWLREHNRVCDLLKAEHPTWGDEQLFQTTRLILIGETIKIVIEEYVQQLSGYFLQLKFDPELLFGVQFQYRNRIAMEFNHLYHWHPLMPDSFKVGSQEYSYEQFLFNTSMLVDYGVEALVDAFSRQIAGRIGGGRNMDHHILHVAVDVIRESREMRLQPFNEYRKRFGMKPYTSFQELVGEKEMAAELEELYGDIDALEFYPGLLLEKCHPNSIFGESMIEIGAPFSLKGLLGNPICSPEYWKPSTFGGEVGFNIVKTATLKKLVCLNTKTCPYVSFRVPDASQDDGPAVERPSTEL

`CCC1(c2cccc(OCC#Cc3ccccn3)c2)COC(C)(C)O1` (stereo not drawn) [2,2-dimethyl-4-ethyl-4-[3-(3-(2-pyridyl)prop-2-yn-1-yloxy)phenyl]-1,3-dioxolane]: the IC50 is 800 nM at 5-LO and above 40000 nM on cyclooxygenase.

In the case of `CCC1(c2cc(F)cc(OCc3ccc4c(ccc(=O)n4C)c3)c2)COC(C)(C)O1` (stereo not drawn) [4-ethyl-4-[5-fluoro-3-(1,2-dihydro-1-methyl-2-oxoquinolin-6-ylmethoxy)phenyl]-2,2-dimethyl-1,3-dioxolane], on 5-LO, the IC50 turned out to be 80 nM.

The record behind these values is patent EP0385679B1, “Heterocyclic cyclic ethers with inhibitory activity on 5-lipoxygenase” (ZENECA LIMITED, priority 1989, dated 1990).
